{"source": "patent US20240294895A1", "about": "“ENZYMATIC COMPOSITIONS FOR CARBOHYDRATE ANTIGEN CLEAVAGE ON DONOR ORGANS, METHODS AND USES ASSOCIATED THEREWITH” (THE UNIVERSITY OF BRITISH COLUMBIA, priority 2018, published 2024)", "assay_type_in_all_cases": "biochemical", "key": {"[1]": {"test_system": "Flavonifractor plautii GalNAcDeacetylase FpGalNAcDeAc_D1min, mutant H252F", "assay": "Cleavage of A antigen Type2tetra-MU by FpGalNAcDeAc_D1min H252F", "settings": "substrate depletion method for low-activity mutants", "description": "kcat/KM parameter were determined for A antigen subtype 1/2/4tetra-MU at pH 7.4 at 37° C. Reactions (total volume of 100 μL) were performed in black 96-plate wells and as coupled assays in 100 mM NaH2PO4 (pH 7.4) with 12 nM FpGalNAcDeacetylase 0.1 mg/mL SpHex, BgaC (BgaA for subtype II), AfcA, at varying concentrations of substrate (25 μM, 20 μM, 15 μM, 10 μM, 7.5 μM, 5 μM). The reactions were run as a series of four with controls (no FpGalNAcDeacetylase) as duplicates. The fluorescence signal (365/435 nm) resulting from MU release by hydrolysis was monitored on a Synergy H1™ plate reader (BioTek™) and converted to concentration using MU standard concentration curves determined under identical reaction conditions. […]\n(§1) Based on structural information (not shown) and sequence alignment (not shown) FpGalNAcDeAc_D1min and FpGalNase_truncA were mutated using the QuickChange™ protocol (Zhang 2004), utilizing the primers noted in TABLE B. The mutants were purified via NiNTA and HIC columns as described above. The structural integrity of all mutants was checked via CD spectroscopy; all tested enzymes were structurally similar to their wild-type. […]"}, "[2]": {"test_system": "Flavonifractor plautii GalNAcDeacetylase FpGalNAcDeAc_D1min, mutant D100N", "assay": "Cleavage of A antigen Type2tetra-MU by FpGalNAcDeAc_D1min D100N", "settings": "substrate depletion method for low-activity mutants", "description": "kcat/KM parameter were determined for A antigen subtype 1/2/4tetra-MU at pH 7.4 at 37° C. […] The reactions were run as a series of four with controls (no FpGalNAcDeacetylase) as duplicates. The fluorescence signal (365/435 nm) resulting from MU release by hydrolysis was monitored on a Synergy H1™ plate reader (BioTek™) and converted to concentration using MU standard concentration curves determined under identical reaction conditions. […]\nBased on structural information (not shown) and sequence alignment (not shown) FpGalNAcDeAc_D1min and FpGalNase_truncA were mutated using the QuickChange™ protocol (Zhang 2004), utilizing the primers noted in TABLE B. The mutants were purified via NiNTA and HIC columns as described above. The structural integrity of all mutants was checked via CD spectroscopy; all tested enzymes were structurally similar to their wild-type. For mutants with relatively low activity, reactions were carried out under the same conditions used for full kinetic determinations; however the substrate depletion method was used for determination of kcat/KM values as has been previously described (Vocadlo 2002). In brief: at low concentrations of substrate where [Substrate]<KM (equivalent to ˜⅕- 1/10 of Km) the kcat/KM value can be approximated upon non-linear fitting of the reaction time course to a first order curve and dividing by the enzyme concentration."}, "[3]": {"test_system": "Flavonifractor plautii GalNAcDeacetylase FpGalNAcDeAc_D1min, mutant Y315F", "assay": "Cleavage of A antigen Type2tetra-MU by FpGalNAcDeAc_D1min Y315F", "settings": "substrate depletion method for low-activity mutants", "description": "(§2) kcat/KM parameter were determined for A antigen subtype 1/2/4tetra-MU at pH 7.4 at 37° C. Reactions (total volume of 100 μL) were performed in black 96-plate wells and as coupled assays in 100 mM NaH2PO4 (pH 7.4) with 12 nM FpGalNAcDeacetylase 0.1 mg/mL SpHex, BgaC (BgaA for subtype II), AfcA, at varying concentrations of substrate (25 μM, 20 μM, 15 μM, 10 μM, 7.5 μM, 5 μM). The reactions were run as a series of four with controls (no FpGalNAcDeacetylase) as duplicates. The fluorescence signal (365/435 nm) resulting from MU release by hydrolysis was monitored on a Synergy H1™ plate reader (BioTek™) and converted to concentration using MU standard concentration curves determined under identical reaction conditions. Initial rates (μM/s) were determined and plotted in Grafit™ 7.0 to determine the kcat/KM (s^−1*mM^−1) parameters.\nas §1"}, "[4]": {"test_system": "Flavonifractor plautii GalNAcDeacetylase FpGalNAcDeAc_D1min, mutant C99S", "assay": "Cleavage of A antigen Type2tetra-MU by FpGalNAcDeAc_D1min C99S", "settings": "pH 7.4, 37° C.", "description": "as §2, §1"}, "[5]": {"test_system": "Flavonifractor plautii GalNAcDeacetylase FpGalNAcDeAc_D1min, mutant H252A", "assay": "Cleavage of A antigen Type2tetra-MU by FpGalNAcDeAc_D1min H252A", "settings": "substrate depletion method for low-activity mutants", "description": "as §2, §1"}, "[6]": {"test_system": "Flavonifractor plautii GalNAcDeacetylase FpGalNAcDeAc_D1min, mutant C99A", "assay": "Cleavage of A antigen Type2tetra-MU by FpGalNAcDeAc_D1min C99A", "settings": "pH 7.4, 37° C.", "description": "as §2, §1"}}, "data": [{"smiles": "CC(=O)N[C@H]1[C@H](Oc2ccc3c(C)cc(=O)oc3c2)O[C@H](CO)[C@@H](O[C@@H]2O[C@H](CO)[C@H](O)[C@H](O[C@H]3O[C@H](CO)[C@H](O)[C@H](O)[C@H]3NC(C)=O)[C@H]2O[C@@H]2O[C@@H](C)[C@@H](O)[C@@H](O)[C@@H]2O)[C@@H]1O", "note": "[A antigen Type2tetra-MU]", "values": [{"measurement": "kcat/Km", "setting": "[1]", "result": "0.5 ± 0.033", "unit": "M⁻¹ s⁻¹"}, {"measurement": "kcat/Km", "setting": "[2]", "result": "1.22 ± 0.083", "unit": "M⁻¹ s⁻¹"}, {"measurement": "kcat/Km", "setting": "[3]", "result": "2.78 ± 0.65", "unit": "M⁻¹ s⁻¹"}, {"measurement": "kcat/Km", "setting": "[4]", "result": "1259.9 ± 41.52", "unit": "M⁻¹ s⁻¹"}, {"measurement": "kcat/Km", "setting": "[5]", "result": "1.4 ± 0.2", "unit": "M⁻¹ s⁻¹"}, {"measurement": "kcat/Km", "setting": "[6]", "result": "2344.67 ± 96.63", "unit": "M⁻¹ s⁻¹"}]}]}
